According to patent publication US12594257B2, “Means and methods for improving anti-tumoral efficacy of transmembrane channel protein blockers” (ARDAN PHARMA S.A.S., priority 2021, dated 2026):
“Also recorded” adds a separate entry of the source. Where two headings read alike, the source gives them in different places.

Experiments:
CD11c+ splenic DCs = test: Antigen cross-presentation assay in mouse splenic dendritic cells (B3Z T cell activation, β-galactosidase readout); assay type: cell-based
Procedure: Antigen cross-presentation assays in mouse splenic dendritic cells: To obtain splenic DCs, spleen of C57BL/6 mice was extracted, cut into small pieces and treated with collagenase-D (Roche, Merck). After 30 minutes of incubation at 37° C., the enzymatic reaction was stopped with a 10 mM EDTA solution. Lysis of red blood cells was performed with an ammonium chloride solution. Finally, cells were washed with PBS/SFB1%. […] Briefly, splenic cells were labeled with anti-CD11c antibodies conjugated to the beads. The cells were allowed to pass through a magnetic column subjected to a magnetic field. Thereby, CD11c^+ cells were retained on the column. […]
CD11c^+ spleen cells were incubated with 3 mg/mL of soluble OVA, or OVA plus 20 μM of free (+)-BayK8644, 20 μM of (+)-BayK8644 encapsulated into chitosan nanoparticles (NP-BayK8644) or empty counterpart (eNP) for 4 hours in supplemented-RPMI medium. […] The activation of B3Z cell line was measured detecting β-galactosidase activity by optical density (absorbance at 595-655 nm) using chlorophenol red-β-D-galactopyranoside (CPRG; Roche) as substrate for the reaction.
(+)-BayK8644 inhibits antigen cross-presentation by splenic DCs in vitro: We first studied whether (+)-BayK8644 inhibits antigen cross-presentation in vitro. […] B3Z T cell activation was measured by assessing β-galactosidase activity in a colorimetric assay. […]

E.G7-OVA thymic lymphoma = test: Therapeutic treatment of established E.G7-OVA tumors, intratumoral injection; assay type: in vivo, mouse; settings: WT mice, established EG7 tumors, i.t. 70 nmoles every two days, five injections; vs eNPs or vehicle
Procedure: Tumor Models and Treatments: WT and Tmem176b^−/− C57BL/6 mice were injected s.c with 0.5×10^6 E.G7-OVA thymic lymphoma cells. At the indicated experiment, injection was performed alternating one Tmem176b and one Tmem176b^−/− mouse until completing both groups. In treated animals, alternation was done between (+)-BayK8644- and vehicle-treated animals or NP-BayK8644 and eNP-treated animals. Tumor growth was caliper measured manually every 2-3 days, and the two major diameters were taken. 70 nmoles of free (+)-BayK8644 or (+)-BayK8644 encapsulated in chitosan nanoparticles, or the same amount of empty NPs injections were repeated at the +2, +4, +6, +8 days after the first injection. Mice were sacrificed when one of the major tumor diameters reached 2 cm.
WT and Tmem176b^−/− animals were inoculated with EG7 tumors. Once tumors reached 25 mm^2, animals were i.t. injected with 70×10^−9 moles of (+)-BayK8644, NP-PEG-BayK8644 or eNP-PEG. Treatments were repeated every two days reaching a total of five injections. Mice were euthanized when the longer diameter reached tumors reached […].

[1] = test system: L-type voltage-gated Ca2+ channels; settings: cited from earlier work
murine cancer models = settings: cited from earlier work; for Tumor growth, preventive protocol: before tumor establishment
[2] = mouse, in vivo; cited from earlier work

Row | Structure (SMILES) | B3Z T cell activation by DCs loaded with OVA protein (cross-presentation) (CD11c+ splenic DCs; 3 mg/ml soluble OVA 4 hours, 10 μM or 20 μM) | B3Z T cell activation by DCs loaded with OVA peptide SIINFEKL (CD11c+ splenic DCs; SIINFEKL 45 minutes, 20 μM) | Mouse survival (E.G7-OVA thymic lymphoma) | Tumor growth (E.G7-OVA thymic lymphoma) | Effect on L-type Ca++ channels [1] | Tumor growth, preventive protocol (murine cancer models) | Tumor growth, preventive protocol (murine cancer models; listed as BayK8644) | Caspase-1 activation in the TDLN (murine cancer models; i.p) | Tumor growth, therapeutic protocol (murine cancer models; mice bearing established tumors) | Toxicities in mice [2]
1 | COC(=O)C1=C(C)NC(C)=C([N+](=O)[O-])C1c1ccccc1C(F)(F)F (single isomer, unassigned; (+)) [(+)-BayK8644] | significantly decreased their capacity to activate B3Z cells | did not inhibit activation of B3Z cells | failed | failed to control tumor growth | inhibitor | controlled tumor growth; also recorded: controlled its growth | controlled tumor growth | increased Caspase-1 activation | failed to do so | not associated with toxicities
2 | COC(=O)C1=C(C)NC(C)=C([N+](=O)[O-])C1c1ccccc1C(F)(F)F (single isomer, unassigned; (-)) [(−)-BayK8644] | – | – | – | – | agonists | – | – | – | – | –
